Laboratory results: the supplement of paper PMC11061612

Columns and labels:
Assay in all cases: combination Emax (second highest fraction inhibited in the dose matrix, 72 h); higher = more inhibition; extreme values may be limits of the assay
[1] = tested on: BFTC-905 (Bladder Carcinoma)
Outline: (§1)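 After 24 hours at 37°C and 5% CO2 in 1536-well plates, cells in DMEM/F12 or RPMI plus 10% FBS received two-drug dose matrices for 72 hours. Viability came from CellTiter-Glo 2.0 luminescence and was scaled as inhibition, anchored at 0 by vehicle wells and at 1 by blank wells. Combination Emax is taken as the second-highest inhibition in the matrix, and Bliss excess as the observed combination effect less EA + EB − EA·EB, with EA and EB the single-agent effects.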

[2] = tested on: CAMA-1 (Breast Carcinoma)
Outline: as §1

CHP-212 (Neuroblastoma) = tested on: CHP-212 (Neuroblastoma)
Outline: as §1

[3] = tested on: EVSA-T (Breast Carcinoma)
Outline: as §1

[4] = tested on: HL-60 (Acute Myeloid Leukemia)
Outline: as §1

[5] = tested on: K-562 (Chronic Myelogenous Leukemia)
Outline: as §1

[6] = tested on: KARPAS-45 (T-Lymphoblastic Leukemia)
Outline: as §1

[7] = tested on: KYSE-180 (Esophageal Squamous Cell Carcinoma)
Outline: as §1

[8] = tested on: L-540 (Hodgkin's Lymphoma)
Outline: as §1

MEL-JUSO (Melanoma) = tested on: MEL-JUSO (Melanoma)
Outline: as §1

[9] = tested on: MKN28 (Gastric Carcinoma)
Outline: as §1

[10] = tested on: MS751 (Cervical Carcinoma)
Outline: as §1

[11] = tested on: PANC-08-13 (Pancreatic Carcinoma)
Outline: as §1

[12] = tested on: SU-DHL-8 (B-Cell Non-Hodgkin's Lymphoma)
Outline: as §1

[13] = tested on: SW1417 (Colorectal Carcinoma)
Outline: as §1

[14] = tested on: SW837 (Colorectal Carcinoma)
Outline: as §1

[15] = tested on: TE-6 (Esophageal Squamous Cell Carcinoma)
Outline: as §1

[16] = tested on: TOV-112D (Ovarian Carcinoma)
Outline: as §1

U251 (Low Grade Glioma) = tested on: U251 (Low Grade Glioma)
Outline: as §1

WIL2-NS (Non-Cancerous) = tested on: WIL2-NS (Non-Cancerous)
Outline: as §1

SMILES | combination Emax [1] | combination Emax [2] | combination Emax (CHP-212 (Neuroblastoma)) | combination Emax [3] | combination Emax [4] | combination Emax [5] | combination Emax [6] | combination Emax [7] | combination Emax [8] | combination Emax (MEL-JUSO (Melanoma)) | combination Emax [9] | combination Emax [10] | combination Emax [11] | combination Emax [12] | combination Emax [13] | combination Emax [14] | combination Emax [15] | combination Emax [16] | combination Emax (U251 (Low Grade Glioma)) | combination Emax (WIL2-NS (Non-Cancerous))
Cc1c2c(nn1C)CSCc1cc(n(C)n1)CSc1cc(c3ccccc3c1)OCCCc1c(C(=O)O)n(C)c3c-2c(Cl)ccc13 [AZD5991] + CCN(CCO)CCCOc1ccc2c(Nc3cc(CC(=O)Nc4cccc(F)c4)[nH]n3)ncnc2c1 [AZD2811] (first compound max 1 µM, 7x7, partner max 1 µM) | 0.794 | 0.914 | 0.86 | 1 | 1 | 0.43 | 1 | 0.942 | 1 | 0.592 | 0.329 | 0.855 | 0.281 | 0.931 | 0.23 | 0.231 | 0.715 | 0.868 | 0.423 | 0.339
Cc1c2c(nn1C)CSCc1cc(n(C)n1)CSc1cc(c3ccccc3c1)OCCCc1c(C(=O)O)n(C)c3c-2c(Cl)ccc13 [AZD5991] + CN(C)CCCOc1ccc(-c2ccc3ncc4c(c3c2)n(C2CCOCC2)c(=O)n4C)cn1 [AZD0156] (first compound max 1 µM, 7x7, partner max 1 µM) | 0.273 | 0.555 | 0.837 | 1 | 1 | 0.172 | 0.913 | 0.934 | 1 | 0.439 | 0.275 | 0.859 | 0.211 | 0.692 | 0.263 | 0.208 | 0.792 | 0.551 | 0.607 | 0.388
Cc1c2c(nn1C)CSCc1cc(n(C)n1)CSc1cc(c3ccccc3c1)OCCCc1c(C(=O)O)n(C)c3c-2c(Cl)ccc13 [AZD5991] + C[C@@H]1COCCN1C2=NC(=NC(=C2)C3(CC3)[S@](=N)(=O)C)C4=C5C=CNC5=NC=C4 [AZD6738] (first compound max 1 µM, 7x7, partner max 10 µM) | 0.862 | 0.751 | 0.939 | 1 | 1 | 0.864 | 1 | 0.979 | 1 | 0.684 | 0.405 | 0.901 | 0.419 | 1 | 0.453 | 0.354 | 0.817 | 0.963 | 0.648 | 0.969
Cc1c2c(nn1C)CSCc1cc(n(C)n1)CSc1cc(c3ccccc3c1)OCCCc1c(C(=O)O)n(C)c3c-2c(Cl)ccc13 [AZD5991] + C[C@@H](Nc1cc(F)cc(F)c1)c1cc(C(=O)N(C)C)cc2c(=O)cc(N3CCOCC3)oc12 [AZD8186] (first compound max 1 µM, 7x7, partner max 3 µM) | 0.289 | 0.98 | 0.882 | 1 | 1 | 0.389 | 0.99 | 0.877 | 1 | 0.527 | 0.232 | 0.851 | 0.263 | 0.688 | 0.275 | 0.188 | 0.677 | 0.35 | 0.226 | 0.337
Cc1c2c(nn1C)CSCc1cc(n(C)n1)CSc1cc(c3ccccc3c1)OCCCc1c(C(=O)O)n(C)c3c-2c(Cl)ccc13 [AZD5991] + Cc1cc2ncnn2cc1Nc1ncc2c(n1)n(C1CCOCC1)c(=O)n2C [AZD7648] (first compound max 1 µM, 7x7, partner max 10 µM) | 0.211 | 0.742 | 0.831 | 1 | 1 | 0.182 | 0.936 | 0.9 | 1 | 0.277 | 0.25 | 0.829 | 0.238 | 0.684 | 0.297 | 0.128 | 0.683 | 0.492 | 0.229 | 0.41
Cc1c2c(nn1C)CSCc1cc(n(C)n1)CSc1cc(c3ccccc3c1)OCCCc1c(C(=O)O)n(C)c3c-2c(Cl)ccc13 [AZD5991] + Cn1cnc2c(F)c(Nc3ccc(Br)cc3Cl)c(C(=O)NOCCO)cc21 [Selumetinib] (first compound max 1 µM, 7x7, partner max 3 µM) | 0.751 | 0.509 | 0.944 | 1 | 1 | 0.416 | 0.922 | 0.848 | 1 | 0.669 | 0.387 | 0.896 | 0.208 | 0.655 | 0.527 | 0.325 | 0.62 | 0.414 | 0.274 | 0.236
C[C@@H]1COCCN1c1cc(C2([S@](C)(=N)=O)CC2)nc(-c2ccnc3[nH]ccc23)n1 [AZD6738] + O=C(c1cc(Cc2n[nH]c(=O)c3ccccc23)ccc1F)N1CCN(C(=O)C2CC2)CC1 [Olaparib] (first compound max 10 µM, 7x7, partner max 10 µM) | 0.873 | 0.322 | 0.795 | 0.346 | 0.619 | 0.811 | 0.832 | 0.76 | 0.936 | 0.418 | 0.484 | 0.395 | 0.313 | 0.888 | 0.38 | 0.343 | 0.498 | 0.795 | 0.661 | 0.968
